Paper PMC9090415, “Discovery of small molecule inhibitors of Plasmodium falciparum apicoplast DNA polymerase” (Journal of Enzyme Inhibition and Medicinal Chemistry, 2022)

Target: P. falciparum apicoplast DNA polymerase (Pf-apPOL) (Plasmodium falciparum, UniProt Q8ILY1)
Assay: Fluorescence-based high-throughput DNA polymerase assay (molecular beacon), primary screen and dose-response;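 as to % inhibition ApPOL 90': test concentration in µM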;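 as to % inhibition apPOL 180': test concentration in µM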
Type: biochemical
Procedure, shortened: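 Single-point screening used 10 µM compound with 20 nM polymerase, 20 nM hairpin substrate and 6 µM dNTPs for 90 min at 25 °C. Confirmatory titrations (2.5–80 µM) followed fluorescence at three times, and IC50 was derived from a fit including a cooperativity term n.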

[1] = supplemental file 2, sheet IC50 nontoxic compounds; Pf-apPOL

P. falciparum apicoplast DNA polymerase (Pf-apPOL), sequence (Q8ILY1 entry or part of it): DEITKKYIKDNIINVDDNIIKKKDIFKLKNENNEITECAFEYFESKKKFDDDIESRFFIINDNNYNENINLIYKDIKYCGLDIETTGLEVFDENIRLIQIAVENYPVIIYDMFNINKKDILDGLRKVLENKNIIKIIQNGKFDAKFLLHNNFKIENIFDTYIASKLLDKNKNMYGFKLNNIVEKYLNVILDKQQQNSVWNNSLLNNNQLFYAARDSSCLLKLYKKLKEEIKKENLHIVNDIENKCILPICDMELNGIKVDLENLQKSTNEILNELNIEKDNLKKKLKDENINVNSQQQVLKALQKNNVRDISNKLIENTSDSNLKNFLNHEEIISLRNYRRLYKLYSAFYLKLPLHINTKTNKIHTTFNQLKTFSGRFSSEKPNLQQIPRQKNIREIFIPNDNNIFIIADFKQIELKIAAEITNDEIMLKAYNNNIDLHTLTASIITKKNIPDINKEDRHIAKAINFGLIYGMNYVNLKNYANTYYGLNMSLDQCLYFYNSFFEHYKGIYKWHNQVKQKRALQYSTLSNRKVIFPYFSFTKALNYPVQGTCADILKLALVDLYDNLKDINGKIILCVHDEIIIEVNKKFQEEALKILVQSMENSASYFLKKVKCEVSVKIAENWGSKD

COc1ccc(NC(=O)Cn2nc3c(cc2=O)CCC3)cc1Cl [Molecule 4, COc1ccc(cc1Cl)NC(=O)Cn1nc2CCCc2cc1=O]
% inhibition Apo pol 10' (DRC-1; concentration 2.5; 10'): -1.67%
% inhibition Apol 90' (DRC-1; concentration 2.5; 90'): -5%
% inhibition apPOL 180' (DRC-1; concentration 2.5; 180'): -9%
% inhibition Apo pol 10' (DRC-1; concentration 5; 10'): 44%
% inhibition Apol 90' (DRC-1; concentration 5; 90'): 29%
% inhibition apPOL 180' (DRC-1; concentration 5; 180'): 17%
% inhibition Apo pol 10' (DRC-1; concentration 10; 10'): 88%
% inhibition Apol 90' (DRC-1; concentration 10; 90'): 78%
% inhibition apPOL 180' (DRC-1; concentration 10; 180'): 66%
% inhibition Apo pol 10' (DRC-1; concentration 20; 10'): 94%
% inhibition Apol 90' (DRC-1; concentration 20; 90'): 90%
% inhibition apPOL 180' (DRC-1; concentration 20; 180'): 86%
% inhibition Apo pol 10' (DRC-1; concentration 40; 10'): 93%
% inhibition Apol 90' (DRC-1; concentration 40; 90'): 92%
% inhibition apPOL 180' (DRC-1; concentration 40; 180'): 91%
% inhibition Apo pol 10' (DRC-1; concentration 80 (unit not given); 10'): 89%
% inhibition Apol 90' (DRC-1; concentration 80; 90'): 90%
% inhibition apPOL 180' (DRC-1; concentration 80; 180'): 91%
% inhibition Apol 40' (DRC-2; 40'; concentration 10): 69%
% inhibition Apol 40' (DRC-2; 40'; concentration 20): 69%
% inhibition ApPOL 90' (DRC-2; 90'; concentration 10): 71%
% inhibition ApPOL 90' (DRC-2; 90'; concentration 80): 71%
% inhibition apPOL 180' (DRC-2; 180'; concentration 5): 44%
% inhibition apPOL 180' (DRC-2; 180'; concentration 10): 69%
% inhibition apPOL 180' (DRC-2; 180'; concentration 40): 78%
% inhibition Apo pol 5' (DRC-2; concentration 2.5; 5'): 19%
% inhibition Apol 40' (DRC-2; concentration 2.5; 40'): 18%
% inhibition ApPOL 90' (DRC-2; concentration 2.5; 90'): 16%
% inhibition apPOL 180' (DRC-2; concentration 2.5; 180'): 8%
% inhibition Apo pol 5' (DRC-2; concentration 5; 5'): 46%
% inhibition Apol 40' (DRC-2; concentration 5; 40'): 55%
% inhibition ApPOL 90' (DRC-2; concentration 5; 90'): 54%
% inhibition apPOL 180' (DRC-2; concentration 5; 180'): 44%
% inhibition Apo pol 5' (DRC-2; concentration 10; 5'): 52%
% inhibition Apol 40' (DRC-2; concentration 10; 40'): 69%
% inhibition ApPOL 90' (DRC-2; concentration 10; 90'): 71%
% inhibition apPOL 180' (DRC-2; concentration 10; 180'): 69%
% inhibition Apo pol 5' (DRC-2; concentration 20; 5'): 49%
% inhibition Apol 40' (DRC-2; concentration 20; 40'): 69%
% inhibition ApPOL 90' (DRC-2; concentration 20; 90'): 73%
% inhibition apPOL 180' (DRC-2; concentration 20; 180'): 75%
% inhibition Apo pol 5' (DRC-2; concentration 40; 5'): 50%
% inhibition Apol 40' (DRC-2; concentration 40; 40'): 70%
% inhibition ApPOL 90' (DRC-2; concentration 40; 90'): 74%
% inhibition apPOL 180' (DRC-2; concentration 40; 180'): 78%
% inhibition Apo pol 5' (DRC-2; concentration 80; 5'): 43%
% inhibition Apol 40' (DRC-2; concentration 80; 40'): 65%
% inhibition ApPOL 90' (DRC-2; concentration 80; 90'): 71%
% inhibition apPOL 180' (DRC-2; concentration 80; 180'): 76%
% inhibition Apo pol 10' (first dose-response set; 10'; concentration 5): 44%
% inhibition Apol 90' (first dose-response set; 90'; concentration 10): 78%
% inhibition Apol 90' (first dose-response set; 90'; concentration 20): 90%
% inhibition Apol 90' (first dose-response set; 90'; concentration 80): 90%
% inhibition apPOL 180' (first dose-response set; 180'; concentration 40): 91%
% inhibition apPOL 180' (first dose-response set; 180'; concentration 80): 91%
DNA Pol (primary screen value of the 186 hits; unit not given; 90 min, 10 µM): 45
DNA Pol (primary screen value; head prints only 'DNA Pol'; 90 min, 10 µM): 45

O=C(Cn1ccc2c(=O)[nH]ccc21)Nc1cc(F)ccc1F [Molecule 42]
IC50 [1]: 12.7 µM

NC(=O)c1cc[n+](CC2=C(C(=O)O)N3C(=O)[C@@H](NC(=O)[C@@H](c4ccccc4)S(=O)(=O)[O-])[C@H]3SC2)cc1 [Molecule 9]
IC50 [1]: 4.4 µM

Cc1cccc2c(C(=O)NC(C)C)cc(N(C)C)nc12 [Molecule 47]
IC50 [1]: 15.9 µM

O=C(O)c1c(F)c(F)c(-c2c(F)c(F)c(C(=O)O)c(F)c2F)c(F)c1F [KU0008974]
DNA Pol (186 hits, value of the hit list (primary screen); unit not given; 90 min, 10 µM): 36
% inhibition Apo pol 10' (DRC-1; 10'; concentration 2.5): 9.435%
% inhibition Apo pol 10' (DRC-1; 10'; concentration 5): 13.4595%
% inhibition Apo pol 10' (DRC-1; 10'; concentration 10): 21.422%
% inhibition Apo pol 10' (DRC-1; 10'; concentration 20): 42.0339%
% inhibition Apo pol 10' (DRC-1; 10'; concentration 40): 61.4201%
% inhibition Apo pol 10' (DRC-1; 10'; concentration 80): 59.9111%
% inhibition Apol 90' (DRC-1; 90'; concentration 2.5): 3.377%
% inhibition Apol 90' (DRC-1; 90'; concentration 5): 7.4359%
% inhibition Apol 90' (DRC-1; 90'; concentration 10): 14.2426%
% inhibition Apol 90' (DRC-1; 90'; concentration 20): 33.67%
% inhibition Apol 90' (DRC-1; 90'; concentration 40): 52.8962%
% inhibition Apol 90' (DRC-1; 90'; concentration 80): 50.0149%
% inhibition apPOL 180' (DRC-1; 180'; concentration 2.5): -2.039%
% inhibition apPOL 180' (DRC-1; 180'; concentration 5): 0.5684%
% inhibition apPOL 180' (DRC-1; 180'; concentration 10): 7.634%
% inhibition apPOL 180' (DRC-1; 180'; concentration 20): 22.5458%
% inhibition apPOL 180' (DRC-1; 180'; concentration 40): 40.2712%
% inhibition apPOL 180' (DRC-1; 180'; concentration 80): 38.6937%
% inhibition Apo pol 5' (DRC-2, 5', concentration 2.5): 4%
% inhibition Apo pol 5' (DRC-2, 5', concentration 5): 5%
% inhibition Apo pol 5' (DRC-2, 5', concentration 10): 17%
% inhibition Apo pol 5' (DRC-2, 5', concentration 20): 29%
% inhibition Apo pol 5' (DRC-2, 5', concentration 40): 17%
% inhibition Apo pol 5' (DRC-2, 5', concentration 80): 35%
% inhibition Apol 40' (DRC-2, 40', concentration 2.5): 5%
% inhibition Apol 40' (DRC-2, 40', concentration 5): 9%
% inhibition Apol 40' (DRC-2, 40', concentration 10): 23%
% inhibition Apol 40' (DRC-2, 40', concentration 20): 41%
% inhibition Apol 40' (DRC-2, 40', concentration 40): 20%
% inhibition Apol 40' (DRC-2, 40', concentration 80): 47%
% inhibition ApPOL 90' (DRC-2, 90', concentration 2.5): 2.67%
% inhibition ApPOL 90' (DRC-2, 90', concentration 5): 7.58%
% inhibition ApPOL 90' (DRC-2, 90', concentration 10): 21%
% inhibition ApPOL 90' (DRC-2, 90', concentration 20): 39%
% inhibition ApPOL 90' (DRC-2, 90', concentration 40): 19%
% inhibition ApPOL 90' (DRC-2, 90', concentration 80): 47%
% inhibition apPOL 180' (DRC-2, 180', concentration 2.5): -4%
% inhibition apPOL 180' (DRC-2, 180', concentration 5): -1%
% inhibition apPOL 180' (DRC-2, 180', concentration 10): 12%
% inhibition apPOL 180' (DRC-2, 180', concentration 20): 30%
% inhibition apPOL 180' (DRC-2, 180', concentration 40): 14%
% inhibition apPOL 180' (DRC-2, 180', concentration 80): 40%
% inhibition Apo pol 5' (DRC-2; 5'; concentration 5): 5%
% inhibition Apo pol 5' (DRC-2; 5'; concentration 10): 17%
% inhibition Apo pol 5' (DRC-2; 5'; concentration 40): 17%
% inhibition Apol 40' (DRC-2; 40'; concentration 2.5): 5%
% inhibition Apol 40' (DRC-2; 40'; concentration 80): 47%
% inhibition ApPOL 90' (DRC-2; 90'; concentration 80): 47%
DNA Pol (primary screen value, 'DNA Pol' only; 90 min, 10 µM): 36

Cc1cccc(-c2nnc3ccc(NS(=O)(=O)c4ccc(C)c(C)c4)nn23)c1 [Molecule 40]
IC50 [1]: 10.1 µM
